How the values were obtained:
[1] = molecular target: T1, human VDR (Homo sapiens, UniProt P11473); assay: Evaluation of VDR transcription activity in human osteoblasts (HOS cells), luciferase reporter; details: Activity (EC50, VDR transcription activity), HOS cells transfected with human VDR, human RXRα and DR3 luciferase reporter; 21 hours
T1 sequence (P11473 1-427): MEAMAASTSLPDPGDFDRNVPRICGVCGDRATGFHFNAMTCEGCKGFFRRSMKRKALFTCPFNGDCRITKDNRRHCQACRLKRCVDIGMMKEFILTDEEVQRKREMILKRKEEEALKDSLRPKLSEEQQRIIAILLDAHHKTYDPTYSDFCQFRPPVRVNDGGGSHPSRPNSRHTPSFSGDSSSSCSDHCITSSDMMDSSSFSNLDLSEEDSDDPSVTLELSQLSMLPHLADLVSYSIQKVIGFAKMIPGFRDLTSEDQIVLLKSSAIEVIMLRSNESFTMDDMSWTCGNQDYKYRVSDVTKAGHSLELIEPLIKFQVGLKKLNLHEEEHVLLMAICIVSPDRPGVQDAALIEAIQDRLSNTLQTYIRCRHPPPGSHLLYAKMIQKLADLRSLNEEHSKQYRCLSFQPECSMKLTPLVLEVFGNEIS
T1 sequence (P19793 1-462 partner): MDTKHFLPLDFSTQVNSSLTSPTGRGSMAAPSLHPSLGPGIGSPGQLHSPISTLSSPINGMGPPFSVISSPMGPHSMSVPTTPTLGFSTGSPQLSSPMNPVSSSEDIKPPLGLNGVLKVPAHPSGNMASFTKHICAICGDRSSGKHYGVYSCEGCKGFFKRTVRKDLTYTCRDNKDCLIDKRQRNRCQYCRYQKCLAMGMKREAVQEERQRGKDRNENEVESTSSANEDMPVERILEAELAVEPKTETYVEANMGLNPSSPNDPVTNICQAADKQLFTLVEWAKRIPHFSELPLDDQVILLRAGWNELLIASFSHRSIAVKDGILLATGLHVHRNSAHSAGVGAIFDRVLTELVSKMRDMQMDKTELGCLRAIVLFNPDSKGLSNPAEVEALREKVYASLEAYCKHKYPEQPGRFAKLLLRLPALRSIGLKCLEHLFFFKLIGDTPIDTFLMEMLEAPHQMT

[2] = tested on: rat oligodendrocyte progenitor cells; assay: Promotive activity of rat oligodendrocyte progenitor cell differentiation-1 (MBP gene expression, mRNA); format: cell-based; details: Rattus norvegicus, Oligodendrocyte progenitor cell, 96 h, read-out: promotive activity at T3 base (MBP gene expression; DMSO 0%, T3 100%), 4 days, MBP/β actin mRNA
Procedure, shortened: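 Primary OPCs from 1-day-old SD rat forebrain, isolated by shaking off mixed glial cultures and seeded at 2×10^3 cells/well in B27/CNTF (10 ng/mL) differentiation medium with compound. MBP mRNA measured by one-step TaqMan real-time PCR and expressed as MBP/β-actin ratio.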

EC50 [1]: 0.01 to 0.1 µM
Compound: C[C@H](CCN1CCOCC1)[C@H]1CC[C@H]2/C(=C/C=C3C[C@@H](O)C[C@H](O)C3)CCC[C@]12C [Compound D023, (1R,3R)-5-(2-((1R,3aS,7aR,E)-7a-methyl-1-((R)-4-morpholinobutan-2-yl)octahydro-4H-inden-4-ylidene)ethylidene)cyclohexane-1,3-diol]
activation at 1 µM [2]: ≥ 20%

Source: US20230348376A1 (TEIJIN PHARMA LIMITED, priority 2020, published 2023)
